Results as given in patent publication US20230293453A1, “SPERMIDINE AND USES THEREOF” (TLL THE LONGEVITY LABS GMBH, priority 2020, published 2023).

What was measured:
[1] = tested on: ZSF1 obese rats; assay: Fasting glucose determination, cardiometabolic syndrome model; type: in vivo, rat; conditions: 10 weeks of treatment (8 weeks vs. 18 weeks of age), tail vein blood, FIG. 6a
Description: (§1) Cardiometabolic syndrome model: ZSF1 lean and obese rats of both genders were purchased at the age of 5 weeks from the Charles River Laboratories (Kingston, USA). Eight-week-old ZSF1 obese rats were divided into three weight-matched and equally sized/gender-balanced groups: group 1 received regular drinking water (non-treated control), group 2 received regular drinking water supplemented with 40 mM nicotinamide (i.e. 0.5% w/v), and group 3 was administered the combination of 40 mM nicotinamide and 3 mM spermidine (of synthetical origin) in drinking water for a period of 14 weeks. Water as well as food intake were monitored regularly. Age-matched untreated ZSF1 obese and lean rats served as controls.
The basal fasting blood glucose level was determined by collecting a drop of blood from the tail vein. Blood droplet was applied to a test strip that was inserted into a glucose analyzer (glucometer, Accu-Chek Performa). The sampling and measurement was conducted at the age of 8 weeks (baseline) and at the age of 18 weeks. The fold-change was calculated by dividing the values form 18-weeks old animals and 8-weeks old animals.

[2] = tested on: ZSF1 obese rats; assay: Fasting insulin determination (ELISA), cardiometabolic syndrome model; type: in vivo, rat; conditions: 10 weeks of treatment (8 weeks vs. 18 weeks of age), plasma, 6-h fasted, FIG. 6b
Description: as §1
Fasted blood samples were collected from the clavicular vena plexus/jugular vein of 6-h fasted (6 AM-12 AM) and lightly anesthetized rats (2% isoflurane and 98% O2), whose body temperature was maintained at 37° C. using a temperature-controlled heating platform. Fasting insulin was measured in plasma using ultrasensitive rat ELISA kits (Crystal Chem) according to the manufacturer's protocol. The sampling and measurement was conducted at the age of 8 weeks (baseline) and at the age of 18 weeks. The fold-change was calculated by dividing the values form 18-weeks old animals and 8-weeks old animals.

[3] = tested on: obese rats; assay: Intraperitoneal glucose tolerance test, spermidine alone in obese rats; type: in vivo, rat; conditions: 10 weeks of spermidine alone, 1 g/kg glucose i.p., 12-h fasted, age 18 weeks, compared with control obese rats, FIG. 8
Description: Intraperitoneal glucose tolerance test was performed at 6 AM from 12-h fasted rats. During the experiment, rats were singly housed in empty cages without food, water or bed-ding. The basal fasting blood glucose level was determined by collecting a drop of blood from the tail vein. Blood droplet was applied onto a test strip that was inserted into a glucose analyzer (glucometer, Accu-Chek Performa). Rats were then injected intraperitoneally with 1 g of glucose per kg fasting body mass, and blood glucose levels were determined 15, 30, 60, 90 and 120 min after glucose. The sampling and measurement were conducted at the age of 18 weeks.

[4] = tested on: ZSF1 obese rats; assay: Diastolic function by echocardiography, cardiometabolic syndrome model; type: in vivo, rat; conditions: 40 mM nicotinamide, with or without 3 mM spermidine, in drinking water for 14 weeks, FIG. 2c
Description: Cardiometabolic syndrome model: ZSF1 lean and obese rats of both genders were purchased at the age of 5 weeks from the Charles River Laboratories (Kingston, USA). Eight-week-old ZSF1 obese rats were divided into three weight-matched and equally sized/gender-balanced groups: group 1 received regular drinking water (non-treated control), group 2 received regular drinking water supplemented with 40 mM nicotinamide (i.e. 0.5% w/v), and group 3 was administered the combination of 40 mM nicotinamide and 3 mM spermidine (of synthetical origin) in drinking water for a period of 14 weeks. Water as well as food intake were monitored regularly. Age-matched untreated ZSF1 obese and lean rats served as controls. Transthoracic echocardiography was performed using high resolution micro-imaging system equipped with a 24- and 55-MHz linear array transducers for rats and mice, respectively, as described (Eisenberg et al. (2016), Nat Med 22(12): 1428-1438). […] Diastolic function was assessed using pulsed-wave and tissue Doppler imaging to determine the ratio between peak early-filling velocity of transmitral flow (E) and the corresponding mitral valve annulus velocity (e′), respectively. This measurement was conducted according to the method of item 2.1.1, with the exception that the rats were lightly anesthetized with 1-2% isoflurane and 98-99% 02.

[5] = tested on: Aged C57BL/6J male mice; assay: Cardiac hypertrophy by gravimetry, aging model; type: in vivo, mouse; conditions: 24 mM nicotinamide, with or without 3 mM spermidine, in drinking water for 4 months, FIG. 3a
Description: Aging model: Aged C57BL/6J male mice were purchased from the Charles River Laboratories (Sulzfeld, Germany) at the age of 18 months and fed standard chow. Supplementation of 24 mM nicotinamide (i.e. 0.3% w/v, changed two times per week) and of spermidine (i.e. 3 mM final concentration at pH 7.2, changed two times per week) in the regular drinking water was conducted at 20 months of age for a period of 4 months. […] The heart was harvested and weighed, obtaining the heart weight (HW). For normalisation, the weight was subsequently divided by the length of the left tibia bone (TL), resulting in the ratio HW/TL.

[6] = tested on: ZSF1 obese rats; assay: Cardiac hypertrophy by gravimetry, cardiometabolic syndrome model; type: in vivo, rat; conditions: 40 mM nicotinamide, with or without 3 mM spermidine, in drinking water for 14 weeks, FIG. 3c
Description: Cardiometabolic syndrome model: ZSF1 lean and obese rats of both genders were purchased at the age of 5 weeks from the Charles River Laboratories (Kingston, USA). Eight-week-old ZSF1 obese rats were divided into three weight-matched and equally sized/gender-balanced groups: group 1 received regular drinking water (non-treated control), group 2 received regular drinking water supplemented with 40 mM nicotinamide (i.e. 0.5% w/v), and group 3 was administered the combination of 40 mM nicotinamide and 3 mM spermidine (of synthetical origin) in drinking water for a period of 14 weeks. Water as well as food intake were monitored regularly. Age-matched untreated ZSF1 obese and lean rats served as controls. The heart was harvested and weighed, obtaining the heart weight (HW). For normalisation, the weight was subsequently divided by the length of the left tibia bone (TL), resulting in the ratio HW/TL.

[7] = tested on: ZSF1 obese rats; assay: Exercise capacity by exercise calorimetry, cardiometabolic syndrome model; type: in vivo, rat; conditions: 40 mM nicotinamide, with or without 3 mM spermidine, in drinking water for 14 weeks, treadmill peak effort, FIG. 4b
Description: Eight-week-old ZSF1 obese rats were divided into three weight-matched and equally sized/gender-balanced groups: group 1 received regular drinking water (non-treated control), group 2 received regular drinking water supplemented with 40 mM nicotinamide (i.e. 0.5% w/v), and group 3 was administered the combination of 40 mM nicotinamide and 3 mM spermidine (of synthetical origin) in drinking water for a period of 14 weeks. Water as well as food intake were monitored regularly. Age-matched untreated ZSF1 obese and lean rats served as controls. Rats were subjected to peak effort on a closed-chamber treadmill at an inclination of 10° coupled to a gas analyzer (CaloTreadmill). […] The exercise session ended at the maximal fatigue, which was defined as the lack of ability to maintain running speed despite being in contact with the electric shock for more than 5 seconds. Calorimetric parameters, such as relative oxygen consumption (ΔVO2) and carbon dioxide production (ΔVCO2) were continuously measured at 0.2 Hz intervals during treadmill running. Maximal oxygen consumption (VO2max) and run distance were determined at the point at which oxygen uptake reached a plateau during exhaustive workout/exercise.

[8] = tested on: Dahl salt-sensitive male rats; assay: Cardiac hypertrophy by gravimetry, salt-induced hypertensive heart disease model; type: in vivo, rat; conditions: Dahl rats on high-salt diet; 40 mM nicotinamide in drinking water for 12 weeks; FIG. 3b
Source text: Salt-induced hypertensive heart disease model: Dahl salt-sensitive male rats (n=24) were purchased at the age of 4 weeks from the Charles River Laboratories (Kingston, USA). Eight rats were fed the low-salt diet containing 0.3% NaCl (AIN-76A, Research Diets, Inc. USA) throughout the experiment and served as a healthy control group. Low-salt diet was fed also to the remaining 16 Dahl rats until the age of 7 weeks, when the diet was switched to a high-salt diet (AIN-76A with 8% NaCl, Research Diets, Inc. USA), and the rats were divided into two weight-matched cohorts each consisting of two equally sized groups (n=8 animals per group); group 1 received regular drinking water (non-treated control), while group 2 received regular drinking water supplemented with 40 mM nicotinamide (i.e. 0.5% w/v) for a period of 12 weeks. The heart was harvested and weighed, obtaining the heart weight (HW). For normalisation, the weight was subsequently divided by the length of the left tibia bone (TL), resulting in the ratio HW/TL.

[9] = tested on: ZSF1 obese rats; assay: Myocardial nicotinamide and NAD+ levels by mass spectrometry, cardiometabolic syndrome model; type: in vivo, rat; conditions: 40 mM nicotinamide, with or without 3 mM spermidine, in drinking water for 14 weeks
Description: Cardiometabolic syndrome model: ZSF1 lean and obese rats of both genders were purchased at the age of 5 weeks from the Charles River Laboratories (Kingston, USA). Eight-week-old ZSF1 obese rats were divided into three weight-matched and equally sized/gender-balanced groups: group 1 received regular drinking water (non-treated control), group 2 received regular drinking water supplemented with 40 mM nicotinamide (i.e. 0.5% w/v), and group 3 was administered the combination of 40 mM nicotinamide and 3 mM spermidine (of synthetical origin) in drinking water for a period of 14 weeks. Water as well as food intake were monitored regularly. Age-matched untreated ZSF1 obese and lean rats served as controls. The mass spectrometric metabolomic analysis of nicotinamide and NAD^+ in rat myocardium was performed as described previously ([…]., et al. Aging (Albany NY) 11(2019):4783-4800). About 30 mg of tissue was weighed and solubilized in tubes with ceramic beads using 1 ml of cold lysate buffer (methanol:water ratio was 9:1; at -20° C.). Tissue samples were then homogenized three times for 20 s at 5.500 rpm using a Precellys 24 tissue homogenizer followed by centrifugation for 10 min at 15.000 g and 4° C. […] Peak detection and integration of the analytes were performed using the Agilent Mass Hunter quantitative software (B.07.01). […]

[10] = tested on: Dahl salt-sensitive male rats; assay: Diastolic function by hemodynamic pressure-volume measurement, salt-induced hypertensive heart disease model; type: in vivo, rat; conditions: Dahl rats on high-salt diet; 40 mM nicotinamide in drinking water for 12 weeks; FIG. 2b
Source text: Salt-induced hypertensive heart disease model: Dahl salt-sensitive male rats (n=24) were purchased at the age of 4 weeks from the Charles River Laboratories (Kingston, USA). Eight rats were fed the low-salt diet containing 0.3% NaCl (AIN-76A, Research Diets, Inc. USA) throughout the experiment and served as a healthy control group. Low-salt diet was fed also to the remaining 16 Dahl rats until the age of 7 weeks, when the diet was switched to a high-salt diet (AIN-76A with 8% NaCl, Research Diets, Inc. USA), and the rats were divided into two weight-matched cohorts each consisting of two equally sized groups (n=8 animals per group); group 1 received regular drinking water (non-treated control), while group 2 received regular drinking water supplemented with 40 mM nicotinamide (i.e. 0.5% w/v) for a period of 12 weeks. […] The heart rate was monitored by an electrocardiogram (Animal Bio Amp, FE136) and kept at 350-400 bpm throughout the experiment. […] Signals were continuously acquired (MPVS PL3508 PowerLab 8/35), digitized at 2 kHz (ML880 PowerLab 16/30), and analyzed offline (LabChart 8 Pro). After a stabilization period of 10 min, left ventricular end-diastolic pressure (EDP), a baseline parameter of diastolic function, was measured and aver-aged from ten consecutive beats, with ventilation suspended at end-expiration. […]

[11] = tested on: Dahl salt-sensitive male rats; assay: Exercise capacity by exercise calorimetry, salt-induced hypertensive heart disease model; type: in vivo, rat; conditions: Dahl rats on high-salt diet; 40 mM nicotinamide in drinking water for 12 weeks; treadmill peak effort; FIG. 4a
Source text: Salt-induced hypertensive heart disease model: Dahl salt-sensitive male rats (n=24) were purchased at the age of 4 weeks from the Charles River Laboratories (Kingston, USA). Eight rats were fed the low-salt diet containing 0.3% NaCl (AIN-76A, Research Diets, Inc. USA) throughout the experiment and served as a healthy control group. Low-salt diet was fed also to the remaining 16 Dahl rats until the age of 7 weeks, when the diet was switched to a high-salt diet (AIN-76A with 8% NaCl, Research Diets, Inc. USA), and the rats were divided into two weight-matched cohorts each consisting of two equally sized groups (n=8 animals per group); group 1 received regular drinking water (non-treated control), while group 2 received regular drinking water supplemented with 40 mM nicotinamide (i.e. 0.5% w/v) for a period of 12 weeks. Rats were subjected to peak effort on a closed-chamber treadmill at an inclination of 10° coupled to a gas analyzer (CaloTreadmill). […] Calorimetric parameters, such as relative oxygen consumption (ΔVO2) and carbon dioxide production (ΔVCO2) were continuously measured at 0.2 Hz intervals during treadmill running. Maximal oxygen consumption (VO2max) and run distance were determined at the point at which oxygen uptake reached a plateau during exhaustive workout/exercise.

[12] = tested on: Aged C57BL/6J male mice; assay: Diastolic function by echocardiography, aging model; type: in vivo, mouse; conditions: 24 mM nicotinamide, with or without 3 mM spermidine, in drinking water for 4 months, FIG. 2a
Description: Aging model: Aged C57BL/6J male mice were purchased from the Charles River Laboratories (Sulzfeld, Germany) at the age of 18 months and fed standard chow. Supplementation of 24 mM nicotinamide (i.e. 0.3% w/v, changed two times per week) and of spermidine (i.e. 3 mM final concentration at pH 7.2, changed two times per week) in the regular drinking water was conducted at 20 months of age for a period of 4 months. […] Transthoracic echocardiography was performed using high resolution micro-imaging system equipped with a 24- and 55-MHz linear array transducers for rats and mice, respectively, as described (Eisenberg et al. (2016), Nat Med 22(12): 1428-1438). Briefly, lightly anesthetized mice (0.5% isoflurane and 99.5% 02) were placed in the supine position on a temperature-controlled heating platform to maintain their body temperature at 37° C. Diastolic function was assessed using pulsed-wave and tissue Doppler imaging to determine the ratio between peak early-filling velocity of transmitral flow (E) and the corresponding mitral valve annulus velocity (e′), respectively.

[13] = literature: Gale et al. 2004, Chen et al. 2015, Poyan et al. 2018; cited from earlier work
[14] = tested on: Dahl salt-sensitive male rats; assay: Lung congestion by gravimetry, salt-induced hypertensive heart disease model; type: in vivo, rat; conditions: Dahl rats on high-salt diet; 40 mM nicotinamide in drinking water for 12 weeks; FIG. 5a
Source text: Salt-induced hypertensive heart disease model: Dahl salt-sensitive male rats (n=24) were purchased at the age of 4 weeks from the Charles River Laboratories (Kingston, USA). Eight rats were fed the low-salt diet containing 0.3% NaCl (AIN-76A, Research Diets, Inc. USA) throughout the experiment and served as a healthy control group. Low-salt diet was fed also to the remaining 16 Dahl rats until the age of 7 weeks, when the diet was switched to a high-salt diet (AIN-76A with 8% NaCl, Research Diets, Inc. USA), and the rats were divided into two weight-matched […] groups (n=8 animals per group); group 1 received regular drinking water (non-treated control), while group 2 received regular drinking water supplemented with 40 mM nicotinamide (i.e. 0.5% w/v) for a period of 12 weeks.
(§2) The lung was harvested and weighed, obtaining the lung weight (LW). For normalisation, the weight was subsequently divided by the length of the left tibia bone (TL), resulting in the ratio LW/TL.

[15] = tested on: ZSF1 obese rats; assay: Lung congestion by gravimetry, cardiometabolic syndrome model; type: in vivo, rat; conditions: 40 mM nicotinamide, with or without 3 mM spermidine, in drinking water for 14 weeks, FIG. 5b
Description: as §1, §2
This measurement was conducted according to the method of item 2.4.1.

SMILES | fasting glucose level (fold-change 18 weeks vs 8 weeks) [1] | fasting insulin level (fold-change 18 weeks vs 8 weeks) [2] | glucose clearance curve (also as AUC) [3] | quotient E/e' (measure of diastolic dysfunction) [4] | heart weight-to-tibia length ratio (HW/TL), marker of cardiac hypertrophy [5] | heart weight-to-tibia length ratio (HW/TL), marker of cardiac hypertrophy [6] | maximal oxygen consumption (VO2max) [7] | run distance [7] | heart weight-to-tibia length ratio (HW/TL), marker of cardiac hypertrophy [8] | myocardial level of nicotinamide (NAM) ([9]; FIG. 1 left) | myocardial level of nicotinamide adenine dinucleotide+ (NAD+) ([9]; FIG. 1 right) | left ventricular end-diastolic pressure (EDP), marker for diastolic dysfunction [10] | maximal oxygen consumption (VO2max) [11] | run distance [11] | quotient E/e' (measure of diastolic dysfunction) [12] | tolerability at high doses during chronical administration [13] | ratio LW/TL (lung weight to tibia length), measure of lung congestion [14] | ratio LW/TL (lung weight to tibia length), measure of lung congestion [15]
NCCCCNCCCN [spermidine] | no significant influence | no significant influence | did not change | – | – | – | – | – | – | – | – | – | – | – | – | – | – | –
NC(=O)c1cccnc1 [nicotinamide] | increased | increased | – | reduced | reduced | reduced | increased | increased | reduced to levels similar to the control | significantly increased | significantly increased | reduced | increased | increased | reduced | well-tolerated | decrease | compensated this effect
